Patent US20240002424A1, “HEXOSAMINE COMPOUNDS AND METHODS THEREOF” (National Institute of Immunology, priority 2021, published 2024)

What was measured:
HEK293 cells = conditions: cited from earlier work
HL-60 cells [1] = assay: Cell surface sialyl-Lewis-X (CD15s) by anti-CD15s (CSLEX1) flow cytometry; type: cell-based, human; conditions: 50 μM, 24 h
Protocol: Effect of ManNAc analogues on the expression of sialyl-Lewis-X and Lewis-X: HL-60 cells (3.0×10^5 cells/mL in 2.0 mL complete medium in 6 well plate) were treated with D (vehicle), 1a, 1b, 1c, 1d, 1e, 1f, or 1g (50 PM), along with untreated (U) control. After 24 h, cells were harvested and washed with PBS (3×0.5 mL, 3000×g, 3.0 min at room temperature). Prior to last wash, cells were counted using Z2 coulter counter and aliquoted at 2.5×10^5 cells per sample and stained with either mouse anti-human CD15s (CSLEX1) (1.25 μg/mL) or mouse anti-human CD15 (HI98) (2.5 μg/mL) in HEPES/CaCl2) buffer (30 mM HEPES, 110 mM NaCl, 10 mM KCl, 2 mM MgCl2, 10 mM glucose, 1.5 mM CaCl2) containing 0.1% bovine serum albumin, pH 7.3) (total volume of 100 μL) for 30 min at 4° C. Cells were washed with HEPES/CaCl2 buffer (2×0.5 mL) and stained with AlexaFluor488-conjugated anti-mouse IgM (2.5 μg/mL) (for both CD15s and CD15) in 100 μL HEPES/CaCl2 for 30 min at 4° C. Cells were washed with HEPES/CaCl2 buffer (2×0.5 mL), resuspended in PBS (0.2 mL), treated with PI (2.5 μg/ml) and analysed by BD FACSVerse. Samples treated with (i) isotype antibodies followed by secondary antibody and (ii) secondary antibody alone were prepared as controls. Single Cells were gated for PI-negative population for 10,000 events and analysed by flow cytometry. Two replicate samples were prepared for each condition and each sample was counted twice. Three independent experiments were performed. Data was analysed using FlowJo V10. For plotting graph and calculation of significant probability ‘p’ values, two-way ANOVA with Dunnett's multiple comparison tests was employed in GraphPad Prism 8.
Time course of CD15s expression: HL-60 cells (3.0×10^5 cells/mL in 2.5 mL complete medium in 6-well plates) were incubated with D, 1a, 1b, or 1d (50 mM). At each time point, from day 1 to day 6, the cells were harvested from the entire contents of the well, washed, and aliquoted to 5.0×10^5 cells per sample, and immuno-stained using anti-CD15s (CSLEX1) antibody as mentioned above. On day 3, 4, and 5 complete media (1.0 mL) was added to each remaining well in order to compensate for media exhaustion. No contents were removed from the well during the period.

HL-60 cells [2] = assay: Far-western blot of total lysates with biotinylated SNA; type: cell-based, human; conditions: HL-60 lysates; 50 μM, 72 h
Protocol: After 72 h, cells were harvested and lyzed in RIPA buffer containing PIC. Protein concentration in the soluble fraction was estimated using Bradford assay, subjected to 10% SDS-PAGE, blotted onto nitrocellulose membranes (constant current 250 mA, 3 h, 4° C.). Membranes were blocked using 2% w/v gelatin (5.0 mL) in 0.1% PBS-T at room temperature. After 1h, membranes were incubated with either bMAL-II (1:2000, stock conc. 1.0 mg/mL) or bSNA (1:5000, stock conc. 2.0 mg/mL) in 0.1% PBS-T (5.0 mL) at room temperature. After 1 h, membranes were washed using 0.1% PBS-T (6×5.0 mL, 5.0 min), followed by incubation with HRPconjugated avidin (1:50000, stock conc. 2.0 mg/mL) in 0.1% PBS-T (5.0 mL). After 30 min, membranes were washed using 0.1% PBS-T (6×5.0 mL, 5.0 min). Blots were developed using enhanced chemiluminescence substrate and photographic films. Blots using anti-β-actin (as mentioned above) were performed in parallel as loading controls. At least two independent replicate experiments were performed.

HL-60 cells [3] = assay: MAL-II lectin binding on intact cells by flow cytometry; type: cell-based, human; conditions: 50 μM, 24 h
Jurkat cells = assay: GalNAz expression on the cell surface, co-incubation with Ac4GalNAz (3), DBCO-Cy5 flow cytometry; type: cell-based, human; conditions: 50 μM co-incubated with 3 (50 μM)
Protocol: Effect of ManNAc analogues on NeuAz and GalNAz expression: Jurkat cells were incubated under various conditions, namely, (i) D, 1c, 3, 1a, or 1b alone, (ii) 1a or 1b in combination with 1c, (iii) 1a or 1b in combination with 3. After 24 h, cells were harvested, washed, labelled using DBCO-Cy5 ([…]), processed, and analysed by flow cytometry as mentioned above
The high degree of selectivity of ManNAc analogues for processing by the sialic acid biosynthetic pathway was further confirmed by competitive studies using Ac4GalNAz (3) which is known to be processed through both the mucin-type O-glycosylation (MTOG) and β-O-GlcNAc-ylation pathways. The expression of NeuAz by 1c was suppressed by 1a or 1b (50 μM) to an extent of 50% upon co-incubation. By contrast, no reduction in the expression of N-azidoacetyl-D-galactosamine (GalNAz) on the cell surface was noticed upon co-incubation of 3 (50 μM) with 1a or 1b (50 μM) (FIG. 6E and FIG. 7C).

HL-60 cells [4] = assay: Cell surface sialyl-Lewis-X (CD15s) by anti-CD15s (CSLEX1) flow cytometry; type: cell-based, human

SMILES	increase of total sialic acid levels (HEK293 cells)	share of sialic acid being modified N-cyclopropanoyl-D-neuraminic acid (HEK293 cells)	increase in binding of CSLEX1 antibody (sLeX) compared to controls (HL-60 cells [1]) [fold]	SNA epitopes in lectin blot compared to controls (HL-60 cells [2])	MAL-II binding on intact cells compared to untreated cells (HL-60 cells [3])	reduction in expression of GalNAz on the cell surface (Jurkat cells)	increase in binding of CSLEX1 antibody (sLeX), in words (HL-60 cells [1])	maximum increase in sLeX levels on day 2 (HL-60 cells [4]; single dosage 50 μM, day 2) [fold]	sLeX levels by day 6 (in words) (HL-60 cells [4]; single dosage 50 μM, day 6)	sLeX levels on day 6, fold higher (HL-60 cells [4]; single dosage 50 μM, day 6)	day of peak sLeX expression (HL-60 cells [4]; single dosage 50 μM, time course day 1 to day 6) [days]	change in sLeX levels in time course (in words) (HL-60 cells [4]; 50 μM, time course)
CC(=O)OC[C@H]1O[C@H](OC(C)=O)[C@@H](NC(=O)C2CC2)[C@@H](OC(C)=O)[C@@H]1OC(C)=O [Compound 1a, 1,3,4,6-tetra-O-acetyl-2-cyclopropanoylamino-2-deoxy-α-D-mannopyranose]	two folds	more than 50%	~2.5	significant reduction	significant gain	no reduction						
CC(=O)OC[C@H]1OC(OC(C)=O)[C@@H](NC(=O)C2CCC2)[C@@H](OC(C)=O)[C@@H]1OC(C)=O (stereo partly drawn) [Compound 1b, (3S,4R,5S,6R)-6-(acetoxymethyl)-3-(cyclobutanecarboxamido)tetrahydro-2H-pyran-2,4,5-triyl triacetate]				significant reduction	significant gain	no reduction	nearly a four-fold increase	3.0	returned to normal levels	approximately 2.3 fold	2	
CC(=O)NC1C(OC(C)=O)OC(COC(C)=O)[C@@H](OC(C)=O)[C@@H]1OC(C)=O (stereo partly drawn) [Compound 1d, 1,3,4,6-tetra-O-acetyl-2-acetylamino-2-deoxy-α/β-D-mannopyranose]												no change
